From PMC5668067, “Phase I dose-escalation study of the c-Met tyrosine kinase inhibitor SAR125844 in Asian patients with advanced solid tumors, including patients with MET-amplified gastric cancer” (Oncotarget, 2017)
pIC50, pKi: −log10 of the molar value.

Legend:
[1] = system: solid tumors, including MET-amplified gastric cancer; assay: phase I antitumor activity (RECIST 1.1); type: in vivo, human
Procedure: Tumor response was evaluated by the Response Evaluation Criteria In Solid Tumors version 1.1, which define complete response as disappearance of all target lesions, partial response and progressive disease as a minimally 30% decrease or 20% increase, respectively, in the sum of diameters of target lesions, and stable disease as neither sufficient shrinkage to qualify for partial response nor sufficient increase to qualify for progressive disease. Tumor burden was assessed from computerized tomography or magnetic resonance imaging scans performed at baseline, at the end of cycle 1, and every 8 weeks thereafter. Patients evaluable for efficacy received at least one cycle of SAR, with a minimum of two infusions, and had undergone efficacy assessment at baseline and once or more after that.
In the dose-expansion cohort, MET amplification in tumor tissue was evaluated by a FISH assay. A tumor was considered MET amplified if ≥ 10% of cells had more than four gene copies of MET and the MET:CEP7 ratio was ≥ 2. Total c-MET protein expression was evaluated by immunohistochemistry, calculating the percentage of tumor cells with an immunohistochemistry score of 2+ or 3+ membrane staining. […] Immunohistochemistry was performed on fresh or archival tumor tissue.

c-Met kinase = target: c-Met kinase; parameters: method as in PMID 25504634; conditions: cited from earlier work
[2] = system: patients with solid tumors; parameters: method as in ref 9 = [9]; 9 Angevin E Spitaleri G Hollebecque A De Pas T Soria JC Harnois M Mazuir F Assadourian S De Marinis F A first-in-human (FIH) phase I study of SAR125844, a novel selective MET kinase inhibitor, in pati; conditions: cited from earlier work
[3] = dose-expansion cohort (N = 19), 570 mg/m^2

O=C(NCCN1CCOCC1)Nc1nc2ccc(Sc3nnc4ccc(-c5ccc(F)cc5)nn34)cc2s1 [SAR125844]
patients with early disease progression leading to treatment discontinuation in cycle 1 ([1]; dose-escalation cohort): 11 patients | objective responses ([1]; dose-escalation cohort (unselected population, N = 19)): No objective responses | median time to tumor progression ([1]; dose-escalation cohort, 340 mg/m^2): 0.9 months | median time to tumor progression ([1]; dose-escalation cohort, 440 mg/m^2): 1.7 months | patients with stable disease ([1]; dose-escalation cohort, after 1 month of treatment): seven | patients with stable disease ([1]; dose-escalation cohort, after 1 month of treatment, listed as SAR): 7 patients | patients with progressive disease [1, 3]: 10 patients | patients with stable disease [1, 3]: seven | confirmed partial response / objective response rate ([1]; dose-expansion cohort, MET-amplified tumors, 570 mg/m^2, two of 19 patients): 10.5% | patients with unconfirmed partial response ([1]; dose-expansion cohort, gastric cancer): one | median time to tumor progression ([1]; dose-expansion cohort, median (range)): 0.92 (0.4–9) months | median time to tumor progression ([1]; gastric cancer subpopulation of dose-expansion cohort, median (range)): 1.18 (0.4–9) months | overall response rate (partial response rate) ([1]; gastric cancer subpopulation with MET amplification, two of 14 patients): 14.3% | pIC50 (c-Met kinase; read-out: half-maximal inhibitory concentration): 8.38 | pKi (c-Met kinase; read-out: inhibitory constant): 8.55 | recommended dose (RD) ([2]; first-in-human study, Western countries, intravenously): 570 mg/m^2 per week | tolerability profile ([2]; first-in-human study, doses 50‒740 mg/m^2): acceptable tolerability profile | antitumor activity ([2]; one patient with lung adenocarcinoma and MET amplification): Preliminary evidence of antitumor activity
